# Data: patent publication US20240197767A1, “COMBINATION OF ZIDOVUDINE WITH A TETRACYCLINE ANTIBIOTIC” (Helperby Therapeutics Limited, priority 2019, published 2024)
# Experiments:
# Assay in all cases: Chequerboard MIC/synergy testing of zidovudine and doxycycline, log phase bacteria
# Assay type in all cases: cell-based
# [1] = system: BAA2471 NDM-1 Escherichia coli; settings: BAA2471, read-out: MIC Doxycycline
# Experimental: (§1) Synergy in the context of antimicrobial drugs is measured in a number of ways that conform to the generally accepted opinion that “synergy is an effect greater than additive”. One of the ways to assess whether synergy has been observed is to use the “chequerboard” technique. This is a well-accepted method that leads to the generation of a value called the fractional inhibitory concentration index (FICI). Orhan et al., J. Clin. Microbiol. 2005, 43(1):140 describes the chequerboard method and analysis in the paragraph bridging pages 140-141, and explains that the FICI value is a ratio of the sum of the MIC (Minimum Inhibitory Concentration) level of each individual component alone and in the mixture. The combination is considered synergistic when the ΣFIC is ≤0.5, indifferent when the ΣFIC is >0.5 but <4.0, and antagonistic when the ΣFIC is >4.0.
# (§2) The chequerboard method used in Example 1 followed the protocols detailed in Antimicrob Chemo (2013) 68, 374-384. Zidovudine and doxycycline were obtained from commercially available sources. The bacteria used were BAA2469 NDM-1 Escherichia coli, BAA2470 NDM-1 Klebsiella pneumoniae, BAA2471 NDM-1 Escherichia coli, BAA2472 NDM-1 Klebsiella pneumoniae, and NCTC13443 NDM-1 Klebsiella pneumoniae. All strains were obtained from a commercial source and log phase growth of the bacteria was carried out using methods known in the art.
# (§3) The effects of the combination of the present invention were examined by calculating the fractional inhibitory concentration index (FICI) of each combination, as follows:
# (§4) (MIC of drug A,tested in combination)/(MIC of drug A,tested alone)+(MIC of drug B,tested in combination)/(MIC of drug B,tested alone).
# (§5) The interaction of the combination was defined as showing synergy if the FICI was […], no interaction if the FICI was >0.5 but <4.0 and antagonism if the FICI was >4.0.
# [2] = system: BAA2470 NDM-1 Klebsiella pneumoniae; settings: strain BAA2470, doxycycline alone
# Experimental: as §1, §2, §3, §4, §5
# [3] = system: NCTC13443 NDM-1 Klebsiella pneumoniae; settings: strain NCTC13443, doxycycline alone
# Experimental: as §1, §2, §3, §4, §5
# [4] = system: BAA2469 NDM-1 Escherichia coli; settings: strain BAA2469, doxycycline alone
# Experimental: as §1, §2, §3, §4, §5
# [5] = system: BAA2472 NDM-1 Klebsiella pneumoniae; settings: BAA2472, read-out: MIC Doxycycline
# Experimental: as §1, §2, §3, §4, §5
structure (smiles),measurement,setting,value
"C[C@H]1c2cccc(O)c2C(=O)C2=C(O)[C@]3(O)C(=O)C(C(N)=O)=C(O)[C@@H](N(C)C)[C@@H]3[C@@H](O)[C@@H]21 [Doxycycline, (4S,4aR,5S,5aR,6R,12aR)-4-(dimethylamino)-1,5,10,11,12a-pentahydroxy-6-methyl-3,12-dioxo-4a,5,5a,6-tetrahydro-4H-tetracene-2-carboxamide]",MIC,[1],32 µg/mL
same,MIC,[2],64 µg/mL
same,MIC,[3],32 µg/mL
same,MIC,[4],64 µg/mL
same,MIC,[5],16 µg/mL
